Test results as given in patent publication US11109607B2, “Oil-based compositions for enhancing oral health and general wellness in humans” (priority 2013, dated 2021).

Columns and labels:
[1] = tested on: Staphylococcus aureus (ATCC#14154); experiment: Micro-broth dilution susceptibility testing (MIC/MBC); format: cell-based; settings: for effect against Staphylococcus aureus (in words): ATCC#14154, grown in broth over 48 hours
Experimental: (§1) A micro-broth dilution technique was used to determine the susceptibility of the strains of Staphylococcus aureus. Susceptibility was expressed as minimum inhibitory (MIC) and/or minimum bactericidal (MBC) concentration.
(§2) Various essential oils, carvacrol, and monolaurin were tested alone or in combination for the treatment of Staphylococcus aureus infection. Twelve essential oils were tested in the study: oregano oil, olive oil (the diluent), pumpkin oil, fenugreek oil, myrtle oil, allspice oil, sage oil, lavender oil, bay leaf oil, cumin oil, cinnamon oil, and cassia oil.
(§3) The stock solutions of oregano oil, other essential oils, olive oil, and carvacrol were dissolved in 50% ethanol-Tween 80 solvents. Antibiotics were dissolved in 50% ethanol and used as positive controls. Solvent controls (addition of carrier without essential oil and monolaurin) were also included for reference in addition to regular controls.
(§4) The Sabouraud's glucose (S.g.) broth containing varying amounts (logarithmic, serially and 2-fold diluted) of oregano oil, other essential oils, carvacrol, monolaurin and various controls were inoculated with actively dividing Staphylococcus aureus cells. The cultures were incubated for about 24 hours and about 48 hours at a temperature of about 30° C. on a metabolic rotary shaker (220 rev/min), and the growth was monitored both visually and colorimetrically (at a wavelength of about […]). The minimum inhibitory concentration (MIC) was defined as the lowest concentration required to arrest the growth of the bacteria at the end of 24 hour of incubation. Minimum bactericidal concentration (MBC) was determined by sub-culturing a 0.01 ml aliquot of the medium drawn from the culture tubes after 48 hours on S.g. agar plates and incubated further for bacterial growth. The plates were scored for growth of the bacteria colonies. The lowest concentration of the antimicrobial agent causing negative growth (fewer than three colonies) was considered as MBC. In every case, the MIC and MBC were virtually the same.
A micro dilution study on Staphylococcus aureus (ATCC#14154) grown in broth over 48 hours was performed to determine the comparative effects of various antibiotics and essential oils against Staphylococcus aureus infection at the selected concentrations.

[2] = tested on: Staphylococcus aureus (ATCC#14775); experiment: as above; format: cell-based; settings: for killing of Staphylococcus aureus in vitro (summary): summary statement
Experimental: as §1, §2, §3, §4
The micro dilution study was performed with another strain of Staphylococcus aureus (ATCC#14775). Although the results from the two strains (ATCC#14775 and ATCC#14154) were generally similar, there were some minor differences. […] Oregano oil provided efficacy against the ATCC#14775 strain infections at the concentration as low as 0.25 mg oregano oil. Carvacrol provided efficacy against the ATCC#14775 strain infections at a phenol content equivalent to that in 0.5 mg oregano oil.
The in vitro experiment on Staphylococcus aureus (ATCC#14775) was performed to investigate the efficacy of using monolaurin alone, using monolaurin in combination with oregano oil, or using oregano oil alone.

[3] = tested on: Staphylococcus aureus (ATCC#14775); experiment: Murine systemic bacteremia model, 30-day survival; format: in vivo, mice; settings: for in vivo effect on survival (in words): mice infected with 5xLD50, daily gavage 30 days; for mice surviving for 30 days (survivors/group): second study, groups of eight, 3.2 mg of each agent by gavage, vancomycin 400 μg i.p.; for mice surviving thirty days (survivors/total): summary across the in vivo studies
Experimental: Female BALB/c mice (about 15 grams to 20 grams in weight) were obtained from Taconic Farms (Germantown, N.Y.). The mice were maintained in a controlled environment at about 24° C. with a 12-hour light and 12-hour dark cycle and were acclimatized in the animal facility for about 3-5 days before testing. The mice were housed in groups of five, fed commercial rodent pellets, and given water ad libitum throughout the experiments. The Animal Welfare Board at Georgetown University Medical Center approved the protocol for the entire investigation.
In two separate experiments, groups of mice (6 and 8 respectively) infected with Staphylococcus aureus (5×LD50) were gavaged daily with oregano oil, carvacrol, monolaurin or combined oregano oil-monolaurin in 0.2 ml of olive oil for 30 days. The amount of bacterial agents administered was calculated based on the body weight of the mice. Control mice received daily gavages of either olive oil alone (negative control) or olive oil orally plus vancomycin (400 mcg) i.p. (positive control).
In the first in vivo experiment, the daily dose of oregano oil was either 2.0 μl (1.6 mg) or 4.0 μl (3.2 mg). […] In the second in vivo study, the daily dose of oregano oil was the same as the higher dose used before, i.e., 4.0 μl (3.2 mg). Monolaurin was given at the same dose; and when both agents were combined, the same individual doses were used, i.e., 3.2 mg of each. Both experiments were terminated at the end of 30 days. The body weight, the disease status, and the overall health of the mice during the experiments were recorded. The pathological status of the mice was determined by visual examination of the internal organs after their death or sacrifice at the completion of the experiment. Culturing aliquots of kidney homogenates on S.g. agar plates were tested for the renal burden of Staphylococcus aureus.
Furthermore, the in vivo therapeutic effects of the natural edible oregano oil and one of its major constituents, carvacrol, were examined in a murine systemic bacteremia model. […] Groups of six mice infected with Staphylococcus aureus (ATCC#14775) (5×LD50) were gavaged with varying amounts of oregano oil (2.0 μl 1.6 mg; and 4.0 μl 3.2 mg) or injected i.p. with vancomycin (400 μg) daily for 30 days. […] Fifty percent of the mice (3/6) receiving oregano oil (3.2 mg) survived over the thirty days, while only one of six receiving 1.6 mg oregano oil survived for 30 days. Also, 50% of those receiving vancomycin (400 μg) survived for 30 days, while all in the control group died within a three-day period. […] In contrast, numerous abscesses were noted and renal cultures were positive in all dying mice.
In a separate in vivo study, the effects of using monolaurin, either alone and in combination with oregano oil, were investigated and compared to the effects of oregano oil alone. Groups of eight mice were infected with five times the LD50 (5×LD50) of Staphylococcus aureus (A TIC #14775). Fifty percent of the mice (4/8) injected daily with vancomycin (400 μg i.p.) survived for the thirty days of study in contrast to the control group where all eight mice died within a week's time. In the three test groups, 3/8 survived for 30 days in the oregano oil group (3.2 mg), 4/8 survived in the monolaurin group (3.2 mg), and 5/8 survived in the group receiving the combination of oregano oil (3.2 mg) and monolaurin (3.2 mg). No abscesses were seen on inspection, and no bacterial growth was found in the kidney tissue of the 30-day survivors.

## [H]/N=C(/N)N[C@H]1[C@H](O)[C@@H](O)[C@H](O[C@@H]2O[C@@H](C)[C@](O)(C=O)[C@H]2O[C@@H]2O[C@@H](CO)[C@H](O)[C@@H](O)[C@@H]2NC)[C@@H](N/C(N)=N\[H])[C@@H]1O [Streptomycin, streptomycin]
[1]
  effect against Staphylococcus aureus (in words): did not completely kill the bacteria

## Cc1ccc(C(C)C)cc1O [carvacrol]
[2]; ATCC#14775, carvacrol expressed as oregano oil equivalent
  effective phenol content, as equivalent amount of oregano oil: 0.5 mg
[2]
  killing of Staphylococcus aureus in vitro (summary): killed Staphylococcus aureus effectively in vitro
[1]; ATCC#14154, carvacrol expressed as oregano oil equivalent
  effective concentration, as comparable dose of oregano oil (phenol content): 0.5 mg
[1]; relative to one oregano oil dosage, strain not specified
  phenol content needed for the same efficacy as oregano oil: twice the phenol content
[3]; first experiment, twelve mice, two doses equivalent to phenol content in 1.6 mg and 3.2 mg oregano oil
  survival time (none survived beyond): ≤ 21 days
[3]; first in vivo study, carvacrol at phenol-equivalent doses
  renal culture after death: Staphylococcus aureus was grown out of their kidneys
[3]
  in vivo effect on survival (in words): prolonged survival
[3]; listed as Carvacrol
  in vivo effect on survival (in words): delayed death but could not cure the mice

## CCCCCCCCCCCC(=O)OCC(O)CO (stereo not shown) [monolaurin, glycerol monolaurate]
[2]; ATCC#14775, 0.125 mg of each agent
  growth after two days of incubation: A few Staphylococcus aureus (ATCC#14775) colonies grew
[2]
  killing of Staphylococcus aureus in vitro (summary): killed Staphylococcus aureus effectively in vitro
[3]
  in vivo effect on survival (in words): protective effect
  mice surviving for 30 days (survivors/group): 4/8
  mice surviving thirty days (survivors/total): 4/8

## CN[C@H](CC(C)C)C(=O)N[C@H]1C(=O)N[C@@H](CC(N)=O)C(=O)N[C@H]2C(=O)N[C@H]3C(=O)N[C@H](C(=O)N[C@H](C(=O)O)c4cc(O)cc(O)c4-c4cc3ccc4O)[C@H](O)c3ccc(c(Cl)c3)Oc3cc2cc(c3O[C@@H]2O[C@H](CO)[C@@H](O)[C@H](O)[C@H]2O[C@H]2C[C@](C)(N)[C@H](O)[C@H](C)O2)Oc2ccc(cc2Cl)[C@H]1O [vancomycin]
[1]
  effect against Staphylococcus aureus (in words): completely destroyed the bacteria
[3]; first experiment, groups of six, 400 μg i.p. daily
  mice surviving for 30 days: 50%
[3]
  mice surviving for 30 days (survivors/group): 4/8
  mice surviving thirty days (survivors/total): 7/14

## penicillin
[1]
  effect against Staphylococcus aureus (in words): essentially showed no effect
